{"source": "paper PMC6563033", "about": "“Purification and Characterization of Antioxidant Peptides Derived from Protein Hydrolysate of the Marine Bivalve Mollusk Tergillarca granosa” (Marine Drugs, 2019)", "origin": "cited, not measured here", "key": {"[1]": {"conditions": "cited from earlier work", "description": "EC50 values of TGP3 and TGP4 were lower than those of APs from protein ..."}, "[2]": {"conditions": "cited from earlier work", "remark": "listed apart in the source"}, "[3]": {"conditions": "cited from earlier work", "procedure": "Defatted muscle of blood cockle was hydrolyzed under a two-enzyme system (Alcalase treatment for 1.5 h following Neutrase treatment for 1.5 h), and the degree of hydrolysis (DH) and yield of the resulted hydrolysate (referred to as TGH) were 19.32 ± 1.37% and 9.62 ± 0.86% (on the basis of defatted muscle), respectively. […] In addition, the EC50 values of TGP3 and TGP4 were lower than those o ...", "remark": "listed apart in the source"}, "[4]": {"conditions": "APs from spotless smoothhound (Mustelus griseus) muscle"}, "[5]": {"conditions": "APs from miiuy croaker swim bladder"}, "[6]": {"conditions": "APs from croceine croaker scale"}}, "note": "Like-named read-outs stand apart in the source and are kept apart here."}
{"substance": "ELLI [literature AP from spotless smoothhound muscle]", "values": [{"measurement": "EC50 on hydroxyl radical", "setting": "[1]; [4]", "value": 117.3, "unit": "µg/mL"}]}
{"substance": "FPYLRH [literature AP from miiuy croaker swim bladder]", "values": [{"measurement": "EC50 on superoxide anion radical", "setting": "[2]; [5]", "value": 340, "unit": "µg/mL"}, {"measurement": "EC50 on hydroxyl radical", "setting": "[1]; [5]", "value": 680, "unit": "µg/mL"}]}
{"substance": "HFGBPFH [literature AP from grass carp skin]", "values": [{"measurement": "EC50 on DPPH radical", "setting": "[3]; AP from grass carp skin", "value": 200, "unit": "µg/mL"}]}
{"substance": "FMPLH [literature AP from miiuy croaker muscle]", "values": [{"measurement": "EC50 on superoxide anion radical", "setting": "[2]; APs from miiuy croaker muscle", "value": 150, "unit": "µg/mL"}, {"measurement": "EC50 on DPPH radical", "setting": "[3]; APs from miiuy croaker muscle", "value": 480, "unit": "µg/mL"}, {"measurement": "EC50 on hydroxyl radical", "setting": "[1]; APs from miiuy croaker muscle", "value": 800, "unit": "µg/mL"}]}
{"substance": "GFRGTIGLVG [literature AP from croceine croaker scale]", "values": [{"measurement": "EC50 on hydroxyl radical", "setting": "[1]; [6]", "value": 293, "unit": "µg/mL"}]}
{"substance": "NFWWP [literature AP from miiuy croaker muscle]", "values": [{"measurement": "EC50 on superoxide anion radical", "setting": "[2]; APs from miiuy croaker muscle", "value": 840, "unit": "µg/mL"}]}
{"substance": "FWKVV [literature AP from miiuy croaker muscle]", "values": [{"measurement": "EC50 on superoxide anion radical", "setting": "[2]; APs from miiuy croaker muscle", "value": 290, "unit": "µg/mL"}, {"measurement": "EC50 on DPPH radical", "setting": "[3]; APs from miiuy croaker muscle", "value": 850, "unit": "µg/mL"}, {"measurement": "EC50 on hydroxyl radical", "setting": "[1]; APs from miiuy croaker muscle", "value": 970, "unit": "µg/mL"}]}
{"substance": "LMGQW [literature AP from monkfish muscle]", "values": [{"measurement": "EC50 on superoxide anion radical", "setting": "[2]; APs from monkfish muscle", "value": 42, "unit": "µg/mL"}, {"measurement": "EC50 on hydroxyl radical", "setting": "[1]; APs from monkfish muscle", "value": 40, "unit": "µg/mL"}]}
{"substance": "YPPAK [literature AP from blue mussel]", "values": [{"measurement": "EC50 on DPPH radical", "setting": "[3]; AP from blue mussel", "value": 2620, "unit": "µg/mL"}]}
{"substance": "EWPAQ [literature AP from monkfish muscle]", "values": [{"measurement": "EC50 on hydroxyl radical", "setting": "[1]; APs from monkfish muscle", "value": 269, "unit": "µg/mL"}]}
{"substance": "GAEGFIF [literature AP from skipjack tuna bone]", "values": [{"measurement": "EC50 on DPPH radical", "setting": "[3]; APs from skipjack tuna bone", "value": 300, "unit": "µg/mL"}, {"measurement": "EC50 on hydroxyl radical", "setting": "[1]; APs from skipjack tuna bone", "value": 320, "unit": "µg/mL"}]}
{"substance": "YFLWP [literature AP from miiuy croaker muscle]", "values": [{"measurement": "EC50 on superoxide anion radical", "setting": "[2]; APs from miiuy croaker muscle", "value": 3080, "unit": "µg/mL"}]}
{"substance": "NADFGLNGLEGLA [literature AP from giant squid]", "values": [{"measurement": "EC50 on hydroxyl radical", "setting": "[1]; AP from giant squid", "value": 612, "unit": "µg/mL"}]}
{"substance": "FLHRP [literature AP from monkfish muscle]", "values": [{"measurement": "EC50 on superoxide anion radical", "setting": "[2]; APs from monkfish muscle", "value": 101, "unit": "µg/mL"}, {"measurement": "EC50 on hydroxyl radical", "setting": "[1]; APs from monkfish muscle", "value": 114, "unit": "µg/mL"}]}
{"substance": "GADIVA [literature AP from skipjack tuna bone]", "values": [{"measurement": "EC50 on DPPH radical", "setting": "[3]; APs from skipjack tuna bone", "value": 570, "unit": "µg/mL"}, {"measurement": "EC50 on hydroxyl radical", "setting": "[1]; APs from skipjack tuna bone", "value": 250, "unit": "µg/mL"}]}
{"substance": "VGGRP [literature AP from grass carp skin]", "values": [{"measurement": "EC50 on hydroxyl radical", "setting": "[1]; APs from grass carp skin", "value": 2055, "unit": "µg/mL"}]}
{"substance": "GIISH [literature AP from spotless smoothhound muscle]", "values": [{"measurement": "EC50 on hydroxyl radical", "setting": "[1]; [4]", "value": 76.9, "unit": "µg/mL"}]}
{"substance": "GFPSG [literature AP from croceine croaker scale]", "values": [{"measurement": "EC50 on superoxide anion radical", "setting": "[2]; [6]", "value": 151, "unit": "µg/mL"}, {"measurement": "EC50 on hydroxyl radical", "setting": "[1]; [6]", "value": 107, "unit": "µg/mL"}]}
{"substance": "FIGP [literature AP from bluefin leatherjacket skin]", "values": [{"measurement": "EC50 on DPPH radical", "setting": "[3]; AP from bluefin leatherjacket skin", "value": 118, "unit": "µg/mL"}]}
{"substance": "FTGMD [literature AP from miiuy croaker swim bladder]", "values": [{"measurement": "EC50 on superoxide anion radical", "setting": "[2]; [5]", "value": 3040, "unit": "µg/mL"}]}
{"substance": "PSYV [literature AP from weatherfish loach]", "values": [{"measurement": "EC50 on hydroxyl radical", "setting": "[1]; AP from weatherfish loach", "value": 2640, "unit": "µg/mL"}]}
{"substance": "FSGLR [literature AP from miiuy croaker swim bladder]", "values": [{"measurement": "EC50 on superoxide anion radical", "setting": "[2]; [5]", "value": 3350, "unit": "µg/mL"}]}
{"substance": "GIEWA [literature AP from miiuy croaker swim bladder]", "values": [{"measurement": "EC50 on superoxide anion radical", "setting": "[2]; [5]", "value": 300, "unit": "µg/mL"}, {"measurement": "EC50 on DPPH radical", "setting": "[3]; AP from miiuy croaker swim bladder", "value": 780, "unit": "µg/mL"}, {"measurement": "EC50 on hydroxyl radical", "setting": "[1]; [5]", "value": 710, "unit": "µg/mL"}]}
{"substance": "PYSFK [literature AP from grass carp skin]", "values": [{"measurement": "EC50 on hydroxyl radical", "setting": "[1]; APs from grass carp skin", "value": 2283, "unit": "µg/mL"}]}
{"substance": "NWDMEKIWD [literature AP from skate muscle]", "values": [{"measurement": "EC50 on DPPH radical", "setting": "[3]; AP from skate muscle", "value": 289, "unit": "µg/mL"}]}
{"substance": "GFEPY [literature AP from miiuy croaker swim bladder]", "values": [{"measurement": "EC50 on superoxide anion radical", "setting": "[2]; [5]", "value": 870, "unit": "µg/mL"}]}
{"substance": "KFPE [literature AP from spotless smoothhound muscle]", "values": [{"measurement": "EC50 on hydroxyl radical", "setting": "[1]; [4]", "value": 151, "unit": "µg/mL"}]}
{"substance": "LGLNGDDVN [literature AP from conger eel]", "values": [{"measurement": "EC50 on hydroxyl radical", "setting": "[1]; AP from conger eel", "value": 687, "unit": "µg/mL"}]}
{"substance": "GPAGPAG [literature AP from croceine croaker scale]", "values": [{"measurement": "EC50 on superoxide anion radical", "setting": "[2]; [6]", "value": 99, "unit": "µg/mL"}, {"measurement": "EC50 on hydroxyl radical", "setting": "[1]; [6]", "value": 240, "unit": "µg/mL"}]}
